From US12509653B2, “Organ chip to model mammalian joint” (University of Pittsburgh—Of the Commonwealth System of …, priority 2017, dated 2025)

How the values were obtained:
[1] = tested on: chondrocytes and osteoblasts in the bioreactor; assay: RT-PCR marker expression in cartilage and bone chambers of the bioreactor under hormone stimulation; assay type: cell-based; settings: progesterone progressively added to estradiol (week 3 and 4); higher when hormones directly applied to cartilage
Description: Differential expression of markers (as determined by RT-PCR) was evaluated in a control medium that contained no estrogen or progesterone (first bar), and then different concentrations of hormones supplied to the chambers during week 1 (w1: 0.1 nM estradiol), week 2 (w2: 1 nM estradiol), week 3 (w3: 1 nM estradiol and 10 nM progesterone), and week 4 (w4: 0.1 nM estradiol and 50 nM progesterone). Differential expression of markers was determined in a control medium that contained no estrogen or progesterone (first bar), and then different concentrations of hormones supplied to the cartilage chamber during week 1 (w1: 0.1 nM estradiol), week 2 (w2: 1 nM estradiol), week 3 (w3: 1 nM estradiol and 10 nM progesterone), and week 4 (w4: 0.1 nM estradiol and 50 nM progesterone).

[2] = tested on: synovial cells (SM); assay: IL-1β stimulation of synovial cells in the microJoint (OA model), gene expression; assay type: cell-based, human; settings: 10 ng/mL, 24 h
Description: To model OA in the microJoint, the pro-inflammatory cytokine interleukin (IL)-1β (10 ng/mL) was used to stimulate synovial cells for 24 h. Afterwards, IL-1β was withdrawn and inflamed synovium-conditioned medium was perfused through cartilage and FP tissues. […] M0/M1 macrophages can be introduced into the different tissues to investigate their interactions with other cells and implications on OA pathologies.
Different engineered joint tissues, including osteochondral complex (bone and cartilage), synovium, and fat pad were prepared as modules for convenient integration in the bioreactor. After maturation, they were integrated into a bioreactor (FIG. 28). Their interconnection was guided via directional fluidic flow of the culture medium to simulate in vivo physiology (FIG. 29). The bioreactors and accessories were manufactured by 3D printing. Micro-tissues were engineered by encapsulating P5 human MSCs in UV-photocrosslinked 15% methacrylated gelatin (GelMA), and differentiating and maturing them in different types of induction media. The health of individual tissues was assessed by real-time polymerase chain reaction (RT-PCR), histology and enzyme-linked immunosorbent assay (ELISA).

| Compound | cartilage anabolic markers, progesterone added [1] | expression levels of major catabolic genes in SM [2] |
| --- | --- | --- |
| CC(=O)[C@H]1CC[C@H]2[C@@H]3CCC4=CC(=O)CC[C@]4(C)[C@H]3CC[C@]12C [progesterone] | downregulation is still present |  |
| IL-1β: pro-inflammatory cytokine interleukin (IL)-1β used to stimulate synovial cells |  | significantly upregulated |
